Reference: article PMC4940736 (Scientific Reports, 2016)

How the values were obtained:
[1] = target: MARV NP (amino acids 19–370) (Lake Victoria marburgvirus, UniProt P27588); assay type: binding, Marburg virus
[2] = target: EBOV NP (amino acids 36–351) (Zaire ebolavirus, UniProt P18272); assay type: binding, Ebola virus
EBOV NP (amino acids 36–351), sequence (P18272 36-351 limits assumed): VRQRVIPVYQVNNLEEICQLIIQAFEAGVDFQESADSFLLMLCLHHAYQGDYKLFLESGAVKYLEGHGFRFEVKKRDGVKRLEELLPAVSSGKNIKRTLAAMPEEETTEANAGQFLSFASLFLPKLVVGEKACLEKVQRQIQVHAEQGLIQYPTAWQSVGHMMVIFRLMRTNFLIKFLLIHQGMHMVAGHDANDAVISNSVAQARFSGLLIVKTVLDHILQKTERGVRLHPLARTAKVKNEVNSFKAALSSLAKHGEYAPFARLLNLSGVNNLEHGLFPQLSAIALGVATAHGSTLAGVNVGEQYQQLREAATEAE

MARV NP (amino acids 19–370), sequence (P27588 19-370 limits assumed): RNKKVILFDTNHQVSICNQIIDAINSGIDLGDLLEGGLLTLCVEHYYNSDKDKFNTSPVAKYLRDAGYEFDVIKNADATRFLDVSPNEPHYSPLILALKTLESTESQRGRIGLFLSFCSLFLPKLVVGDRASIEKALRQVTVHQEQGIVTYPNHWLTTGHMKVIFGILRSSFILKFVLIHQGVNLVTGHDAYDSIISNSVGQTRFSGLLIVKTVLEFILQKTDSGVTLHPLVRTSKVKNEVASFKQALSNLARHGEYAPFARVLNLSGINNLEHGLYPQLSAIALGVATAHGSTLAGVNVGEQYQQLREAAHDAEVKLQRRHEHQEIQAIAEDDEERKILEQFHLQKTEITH

| Compound | S/N AVE [1] | VIP [1] | S/N AVE [2] | VIP [2] | putative ligand in licorice crude extract screen [1] | putative ligand in licorice crude extract screen [2] |
| --- | --- | --- | --- | --- | --- | --- |
| COc1ccc(-c2coc3cc(O)ccc3c2=O)cc1O [GC9, Calycosin] | 1.36 | 0.16 | 1.01 | 0.14 | – | – |
| glycyrrhetinic acid [GC7/10] | – | – | – | 1.44 | met the aforementioned thresholds | met the aforementioned thresholds |
| O=C(/C=C/c1ccc(O[C@@H]2O[C@H](CO)[C@@H](O)[C@H](O)[C@H]2O)cc1)c1ccc(O)cc1O [GC14, Isoliquiritin] | 1.73 | 2.12 | 1.22 | 1.29 | – | – |
| O=C(/C=C/c1ccc(O)cc1)c1ccc(O[C@@H]2O[C@H](CO)[C@@H](O)[C@H](O)[C@H]2O)cc1O [GC4, Neoisoliquiritin] | 1.72 | 1.31 | 1.58 | 1.18 | – | – |
| O=C1C[C@@H](c2ccc(O)cc2)Oc2cc(O)ccc21 [GC8, Liquiritigenin] | 1.50 | 0.65 | 1.04 | 0.47 | – | – |
| COc1ccc(-c2coc3cc(O[C@@H]4O[C@H](CO)[C@@H](O)[C@H](O)[C@H]4O)ccc3c2=O)cc1 [GC5, Ononin] | 1.76 | 1.28 | 1.46 | 1.09 | – | – |
| CC1(C)[C@@H](O[C@H]2O[C@H](C(=O)O)[C@@H](O)[C@H](O)[C@H]2O[C@@H]2O[C@H](C(=O)O)[C@@H](O)[C@H](O)[C@H]2O)CC[C@]2(C)[C@H]3C(=O)C=C4[C@@H]5C[C@@](C)(C(=O)O)CC[C@]5(C)CC[C@@]4(C)[C@]3(C)CC[C@@H]12 [GC6, Glycyrrhizin] | 0.96 | 1.39 | 1.15 | 5.23 | did not observe its direct binding | did not observe its direct binding |
| O=c1cc(-c2ccc(O)cc2)oc2c([C@@H]3OC[C@H](O)[C@H](O)[C@H]3O)c(O)c([C@@H]3O[C@H](CO)[C@@H](O)[C@H](O)[C@H]3O)c(O)c12 [GC3, Schaftoside] | 1.62 | 1.60 | 1.11 | 0.60 | – | – |
| C=CC(C)(C)c1cc(/C=C/C(=O)c2ccc(O)cc2)c(OC)cc1O [GC13, Licochalcone A] | 6.85 | 2.03 | 5.17 | 2.27 | met the aforementioned thresholds | met the aforementioned thresholds |
